pIC50: −log10 of the molar value.

One molecule from US20150191445A1, “ACYL-HYDRAZONE AND OXADIAZOLE COMPOUNDS, PHARMACEUTICAL COMPOSITIONS CONTAINING THE SAME AND USES THEREOF” (Universidade Federal de Santa Catarina, priority 2011, published 2015) can be followed below.

The subject of one assay is REH cells. Nature of the assay: MTT cytotoxicity assay, REH cell line. Conditions: 48 h of treatment. Format: cell-based, human. Here is the method:
All compounds were resuspended in DMSO at stock concentration of 20 mM and stored at −20° C. For cytotoxicity testing, the dilutions from the stock solutions were made in culture medium (RPMI-1640 plus 10% of fetal bovine serum, 100 IU/ml penicillin and 100 µg/mL Streptomycin), immediately before being discharged to the cells.
The REH and Jurkat cell lines were maintained in
RPMI-1640 medium with 10% FBS (fetal bovine serum), 100 IU/mL penicillin, 100 µg/mL streptomycin and incubated at 37° C. and 5% CO2. Cytotoxicity assays were performed according to the method described in the literature (Pieters, R.; et al. In vitro drug sensitivity of cells from children with leukemia using the MTT assay with improved culture conditions. Blood, 1990, 76, 2327-2336; Pieters, R.; et al. Relation of cellular drug resistance to long-term clinical outcome in childhood acute lymphoblastic leukaemia. Lancet, 1991, 338, 399-403 e Kaspers, G. J.; et al. In vitro cellular drug resistance and prognosis in newly diagnosed childhood acute lymphoblastic leukemia. Blood, 1997, 90, 2723). Cells were resuspended at a concentration of 3.75 10^5 cells/mL in culture medium as described. Eighty microliters of this suspension were seeded into plates with 96 round-bottom wells, containing 20 microliters of different concentrations of compound or vehicle alone. Each treatment was done in triplicate. After 48 hours of incubation at 37° C. and 5% CO2, 20 μL of MTT solution was added (5 mg/mL of 1x PBS), followed by further incubation for 4 hours and 30 minutes at 37° C. and 5% CO2. During these 4 hours and 30 minutes, MTT (yellowish) is metabolized to formazan salt (bluish in color) by living cells. After this, 100 μL sodium dodecyl sulphate (SDS) 10%+0.1M of HCl were added to dissolve the formazan crystals. After incubating overnight, absorbance reading at 570 nm was carried out. The percentage of cells surviving the treatment were calculated relative to the number of surviving cells in the medium without addition of the compounds in question (“negative control”).
c) Determination of IC: IC50 is defined as the concentration of a compound at which 50% of maximal inhibition is obtained. After reading the absorbance, survival curves were constructed and the values of IC50 were obtained with the GraphPad Prism software.
Background: Tetrazolium dyes change colour on reduction, which living cells bring about.

For the next assay, the system named is Jurkat cells. In words: Quantification of apoptosis with Annexin V/PI labeling. Type of assay: cell-based, human. The note with it: 125 nM, 18 h. How it is done:
The cells were incubated for 12 hours in fresh medium before experiments. Two million cells from the Jurkat line were incubated for 12 h, 18 h, 24 h and 30 h in RPMI-640 medium supplemented with 10% Fetal Bovine Serum (FCS) and 0.2% Penicillin/Streptomycin (PS) with a concentration of 125 nM of compound 07 or DMSO (vehicle).
The cells treated or not with compound 07 were rinsed in PBS and labeled with Annexin V Apoptosis Assay kit (Invitrogen). Briefly, cells were resuspended in appropriate buffer containing calcium and incubated for 15 min with Annexin V-FITC and propidium iodide 5 μg/mL. 10,000 events were collected on FACSCalibur flow cytometer, excluding any debris by forward vs standard, side scatter, with quantification of green and red fluorescence.

The term pIC50 denotes the negative decadic logarithm of the IC50, by convention in mol/L. A high value points to a low IC50. In the assay on REH cells, `COc1cc(C(=O)NN=Cc2cccc3ccccc23)cc(OC)c1OC` [Compound 07] showed a pIC50 of 7.60. Besides, the induction of apoptosis entry in the assay with Jurkat cells is recorded as “strong inducer of apoptosis”.
